Test results taken from patent US20090291153A1, “Health food, Method for producing the same and dried Product and Extract” (priority 2004, published 2009).

What was measured:
[1] = test system: AR42J cells (ATCC CRL 1492); test: Morphological change of AR42J cells as marker of induced differentiation into insulin-producing cells; assay type: cell-based; settings: final concentration 0.1 μg/ml, three days, FIG. 1B
Method: Thus, it was examined whether an extract of Ervatamia microphylla can induce AR42J cells to differentiate into insulin-producing cells. It should be noted that, since characteristic morphological changes of cells are observed as differentiation into insulin-producing cells is induced, morphological changes in AR42J cell were examined as a marker of differentiation induction in this Example. AR42J cells were cultured in the media prepared by sterilizing Dulbecco modification Eagle' medium (DMEM; Nissui Pharmaceutical Co., Ltd.) by filtration after its pH was adjusted to 7.4 in the presence of 20 mM HEPES-NaOH and adding 0.6 g/l glutamine (Kanto Chemical Co., Inc: Tokyo, Japan), 0.2 g/l kanamycin (Sigma Chemical Science; Sigma: St.Louis, Mo., USA), 100 unit/ml penicillin G (Sigma), 5 mM NaHCO3, and 10% fetal bovine serum (FBS; Sigma).
500 μl of a suspension of AR42J cells (4.0×10^5 cells/ml per culture medium) was plated into each well of 24-well plastic plates (Corning) at 2×10^5 cells/well and cultured under the conditions of 37° C. and 5% CO2. […]

K-ras-NRK cells = test: Morphological change of K-ras-NRK cells; assay type: cell-based; settings: final concentration 0.1 μg/ml, three days, FIG. 4
From the text: Conophylline is known to induce a morphological change of K-ras-NRK cells. Thus, it was examined whether an extract of Ervatamia microphylla leaves induces morphological changes of K-ras-NRK cells. It is also known that leaves of the Malaysian Tabernaemontana contains conophylline (Org. Biomol. Chem. 1: 1292-1297, 2003). Thus, it was examined that whether an extract of leaves of crape jasmine, the Japanese Tabernaemontana divaricata, also induces morphological changes in K-ras-NRK cells. An extract of each plant was prepared, in the same manner as described in Example 1, by extracting the active ingredient contained in the leaves with methanol, then removing solids by suction filtration, followed by concentring and drying, and dissolving the resulting powder into methanol.
500 μl of a suspension ([…] per culture medium (DMEM containing 5% FBS, 0.6 g/l glutamine, 0.2 g/l kanamycin, 2.25 g/l NaHCO3)) of K-Ras-NRK cells was added to each well of 24-well plastic plates at 2.0×10^4 cells/well, and the plates were incubated at 37° C. under 5% CO2. The next day, conophylline (final concentration: 0.1 μg/ml), an extract of Ervatamia microphylla leaves (final concentration: 10 μg/ml), and an extract of crape jasmine leaves (final concentration: 10 μg/ml) were added to the culture medium, which was incubated at 37° C. under the condition of 5% CO2 for three days. […]

[2] = test system: pancreatic acinar carcinoma AR42J-B13 cells; settings: cited from earlier work
[3] = test system: streptozotocin-induced diabetic rats; test: Blood glucose levels of streptozotocin-administered rats; assay type: in vivo, Wistar rats; settings: 5 μg/g BW subcutaneously for seven consecutive days from day 1 after streptozotocin 85 μg/g BW i.p.; P<0.05 / P<0.01 vs Control
Method: Ten 1-day-old Wistar rats (purchased from Japan SLC, Shizuoka, Japan) were intraperitoneally injected with streptozotocin (purchased from Wako Pure Chemical Industries, Ltd., dissolved in […] citrate buffer (pH 4.5)) at 85 μg/g BW per rat. Streptozotocin decreases insulin production by destroying pancreatic cells, thereby inducing diabetes. The day of streptozotocin injection was defined as day 0. Starting from the next day (day 1), five rats were injected subcutaneously with a solution (ethanol) of conophylline at 5 μg/g BW for seven consecutive days and their blood glucose levels were measured at a predetermined time daily. Five rats in the control group received the same volume of solvent (control).

For `CC[C@@]12CC(C(=O)OC)=C3Nc4cc5c(cc4[C@@]34CCN(C[C@H]3O[C@H]31)[C@@H]24)[C@@H]1[C@H](O5)[C@@H](O)[C@@]2(CC)CC(C(=O)OC)=C3Nc4c(cc(O)c(OC)c4OC)[C@@]34CCN1[C@@H]24` [conophylline], the “morphological change of AR42J cells (induction of differentiation into insulin-producing cells)” value [1] is listed as “undergo a morphological change from small spherical cells to flat cells partly with processes”, the “morphological change of K-ras-NRK cells” value (K-ras-NRK cells) is listed as “undergo a morphological change” and the “induction of differentiation into insulin-producing cells” value ([2]; Abstracts of the 45th Annual Meeting of the Japan Diabetes Society, 2002) is listed as “induces differentiation of pancreatic acinar carcinoma AR42J-B13 cells into insulin-producing cells”. The “insulin release from the induced insulin-producing cells” value ([2]; same literature condition) was “do not release insulin from the cells” and the “blood glucose level compared with the control” value [3] was “apparent decrease in blood glucose levels”.
